Measurements taken from patent publication US9233957B2, “5-carbamoyl-adamantan-2-yl amide derivatives, pharmaceutically acceptable salts thereof and preparation process thereof” (SK BIOPHARMACEUTICALS CO., LTD., priority 2011, dated 2016).
Where two headings read alike, the source gives them in different places.

Key:
Human 11b-HSD1 = biological target: T1, Human 11b-HSD1 (Homo sapiens, UniProt P28845); test: Inhibition of cortisone-to-cortisol conversion in CHO-K1 cells over-expressing human 11b-HSD1 (HTRF cortisol assay); format: cell-based; settings: CHO-K1 cells over-expressing human 11b-HSD1, 160 nM cortisone, 3 hours, 37° C.
T1 construct: expressed in transfected cells
T1 sequence (P28845 whole entry): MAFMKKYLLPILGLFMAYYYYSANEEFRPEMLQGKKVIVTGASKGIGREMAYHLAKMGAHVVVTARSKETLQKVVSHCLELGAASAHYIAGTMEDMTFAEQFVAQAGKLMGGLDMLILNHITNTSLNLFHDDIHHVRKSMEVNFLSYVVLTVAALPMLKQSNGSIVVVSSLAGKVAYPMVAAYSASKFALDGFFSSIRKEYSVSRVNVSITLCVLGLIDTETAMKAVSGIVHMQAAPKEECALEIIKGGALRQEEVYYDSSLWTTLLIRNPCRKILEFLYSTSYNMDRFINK
Source text: (§1) cDNA (human: Accession No. U12978.2; mouse: Accession No. NM_008288.2) coding the full-length amino acid sequence of 11β-HSD1 in a human and a mouse was incorporated into pMSCVpuro (from Clontech. Co. Ltd.), a vector of expressing a mammalian cell for the production of a retrovirus, and the resulting product was introduced into a GP2-293 cell (from Clontech Co. Ltd.), a retrovirus packing cell line together with pVSV-G vector (from Clontech Co. Ltd.) by using a Lipotamine plus reagent (from Invitrogen Co. Ltd.) in accordance with the method set forth in the appendix (by using HTRF cortisol assay kit from Cisbio assays Co., Ltd., catalog No. 62CO2PEB) and stabilized for 48 hours. Thereafter, viruses being obtained from those cells were used to infect CHO-K1 cell (from Korean Cell Line Bank, KCLB No. 10061) and in 24 hours, the cells were treated with 10 μg/ml pumycin (from Sigma Co. Ltd.) for two weeks to produce a stabilized cell system wherein each 11β-HSD1 in humans or in mice was over-expressed. When the cells being maintained, 5 μg/ml of puromycin was put into the medium and used (RPMI (Gibco), 37° C.). • Reference material: The EMBO Journal (2008) 27, 642-653
(§2) The obtained cells with 11b-HSD1 in a human and a mouse being over-expressed were sub-cultured in a 96-well plate with a cell number being 3×10^4 cells per well and stabilized for 24 hours [RPMI (Gibco), at 37° C., as being used in 5 days after thawing]. After a medium as diluted with DMSO including 160 nM of cortisone (from Sigma Co. Ltd.) and a test compound at a different concentration was put into each well in an amount of 200 ul, the well was cultured in a cell cultivator at 37° C. for 3 hours. 10 ul of the cultured solution was put into a 384 well plate and the amount of cortisol as generated was measured using a cortisol kit (from Cisbio international Co. Ltd, HTRF assay) in accordance with the method set forth in the appended manual.
(§3) As a control group, 160 nM of cortisone and 1% of DMSO were put into a corresponding well. The ground value was obtained from a well including only 160 nM of cortisone and 1% of DMSO without cells just like the control group. The calculation for a % inhibition level was made following the manual as appended. • Reference material: The Journal of Steroid Biochemistry and Molecular Biology, Volume 104, Issues 3-5, May 2007, Pages 123-129 • Bioorganic & Medicinal Chemistry Letters Volume 19, Issue 10, 15 May 2009, Pages 2674-2678
(§4) Like the analyzing method as stated above, the efficacy of inhibiting 11b-HSD1 was calculated as IC50 and the results are shown in Table 1: […]

11b-HSD1 = biological target: T2, 11b-HSD1 (Mus musculus, UniProt P50172); test: Ex vivo PD assay: 11b-HSD1 inhibition in abdominal fat and liver tissue after oral administration to mice; settings: mouse C57B1/6, oral, vs vehicle group; for inhibition at 10 mg/kg: 2 hr; for inhibition at 20 mg/kg: 6 hr
T2 construct: the tissues in abdominal fat and the liver were obtained; from tissue; host or cells: abdominal fat and liver of C57Bl/6 mice
T2 sequence (P50172 whole entry): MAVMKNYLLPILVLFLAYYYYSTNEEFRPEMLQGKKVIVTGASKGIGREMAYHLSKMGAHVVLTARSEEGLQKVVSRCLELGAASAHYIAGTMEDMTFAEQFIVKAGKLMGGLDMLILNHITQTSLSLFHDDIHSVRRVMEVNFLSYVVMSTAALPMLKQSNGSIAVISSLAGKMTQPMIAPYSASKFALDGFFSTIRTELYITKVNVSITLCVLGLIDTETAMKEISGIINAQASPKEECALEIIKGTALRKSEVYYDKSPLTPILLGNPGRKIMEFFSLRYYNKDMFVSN
Procedure: The prepared compound was orally administered to a mouse (C57B1/6, orient 8 week old, about 25 g, male) and in a proper amount of time (2 hours, 6 hours, 12 hours, 16 hours, and 24 hours), the mouse was sacrificed and around 30 to 40 mg of the tissues in abdominal fat and the liver were obtained. To 500 ul of a medium (RPMI, gibco) including 1 μM of cortisone (from Sigma Co. Ltd.) and 400 μM of NADPH (from Sigma Co. Ltd) was added the tissue as obtained (30-40 mg), which then reacted in a cell cultivator at 37° C. for 3 hours. After 50 ul of the reacted solution was taken and diluted with DMEM medium at a volume ratio of 1/10, the amount of cortisol being generated was measured by using a cortisol kit (assay designs Co. Ltd., ELISA kit) in accordance with the method set forth in the appended manual. From the results being measured, the degree of the inhibition was obtained by the conversion in comparison with the vehicle group (vehicle: 5% DMSO+5% cremophor in dw, the amount being proportionate to the body weight, i.e., the administration was made at the same volume as the drug being introduced). • Reference material: Published Aug. 15, 2005//JEM vol. 202 no. 4 517-527 The Rockefeller University Press % inhibition={(the amount of cortisol of the vehicle group−the amount of the cortisol of the group with the compound being administered)/(the amount of cortisol of the vehicle group)}×100
According to the above analyzing method, the efficacy of inhibiting 11b-HSD1 of the test compound in the target organ was calculated as % inhibition values, which are shown in Table 2 and Table 3.

Mouse 11b-HSD1 = biological target: T3, Mouse 11b-HSD1 (Mus musculus, UniProt P50172); test: Inhibition of cortisone-to-cortisol conversion in CHO-K1 cells over-expressing mouse 11b-HSD1 (HTRF cortisol assay); format: cell-based; settings: CHO-K1 cells over-expressing mouse 11b-HSD1, 160 nM cortisone, 3 hours, 37° C.
T3 construct: expressed in transfected cells
T3 sequence (P50172 whole entry): as above
Source text: as §1, §2, §3, §4

[1] = abdominal fat, read-out: 11b-HSD1 % inhibition in the fat
[2] = liver, read-out: 11b-HSD1 % inhibition in the liver

`NC(=O)[C@]12CC3CC(C1)[C@@H](NC(=O)c1ccc4ccccc4[n+]1[O-])C(C3)C2` [Example 64, N-(5-carbamoyl-2-adamantyl)-1-oxidoquinolin-1-ium-2-carboxamide] was tested, and the IC50 (Human 11b-HSD1) was > 500 nM, the inhibition at 10 mg/kg (11b-HSD1; [1]) was 51% and the inhibition at 10 mg/kg (11b-HSD1; [2]) was 61%. It also gave an inhibition at 20 mg/kg (11b-HSD1; [1]) of 57%, an inhibition at 20 mg/kg (11b-HSD1; [2]) of 48% and an IC50 (Mouse 11b-HSD1) of 100 to 500 nM.
`NC(=O)[C@]12CC3CC(C1)[C@@H](NC(=O)c1ccc(-c4cccc(Cl)c4)o1)C(C3)C2` [Example 26, N-(5-carbamoyl-2-adamantyl)-5-(3-chlorophenyl)furan-2-carboxamide] was tested, and the IC50 (Human 11b-HSD1) was < 100 nM, the inhibition at 20 mg/kg (11b-HSD1; [1]) was 71% and the inhibition at 20 mg/kg (11b-HSD1; [2]) was 47%. For the same compound, the IC50 (Mouse 11b-HSD1) was < 100 nM.
`Cn1c(C(=O)N[C@H]2C3CC4CC2C[C@](C(N)=O)(C4)C3)ccc1-c1ccccc1Cl` [Example 38, N-(5-carbamoyl-2-adamantyl)-5-(2-chlorophenyl)-1-methylpyrrole-2-carboxamide] was tested, and the IC50 (Human 11b-HSD1) was < 100 nM, the inhibition at 20 mg/kg (11b-HSD1; [1]) was 98% and the inhibition at 20 mg/kg (11b-HSD1; [2]) was 98%. The IC50 (Mouse 11b-HSD1) was < 100 nM.
For `Cn1c(C(=O)N[C@H]2C3CC4CC2C[C@](C(N)=O)(C4)C3)ccc1-c1ccccc1` [Example 34, N-(5-carbamoyl-2-adamantyl)-1-methyl-5-phenylpyrrole-2-carboxamide], the IC50 (Human 11b-HSD1) was < 100 nM, the inhibition at 20 mg/kg (11b-HSD1; [1]) was 96% and the inhibition at 20 mg/kg (11b-HSD1; [2]) was 92%. The IC50 (Mouse 11b-HSD1) was < 100 nM.
With `NC(=O)[C@]12CC3CC(C1)[C@@H](NC(=O)c1ccc(-c4ccccc4Cl)o1)C(C3)C2` [Example 27, N-(5-carbamoyl-2-adamantyl)-5-(2-chlorophenyl)furan-2-carboxamide] the IC50 (Human 11b-HSD1) was < 100 nM, the inhibition at 20 mg/kg (11b-HSD1; [1]) was 80% and the inhibition at 20 mg/kg (11b-HSD1; [2]) was 65%. For the same compound, the IC50 (Mouse 11b-HSD1) was < 100 nM.
